pIC50: −log10 of the molar value.
Test system: Plasmodium berghei
Experiment: Luciferase/luciferin-expressing antifolate-resistant parasites were used to infect a culture of HepG2 cells that were pre-incubated with compounds. Infected hepatocytes emit light due to the luciferase reaction. Assay results are presented as the percent inhibition of light emission compared to control. […]
Format: functional
Settings: sporozoite; for IC90: read-out: LUCIFERASE INFECTION ASSAY - IC90

| SMILES | IC90 | other results |
| --- | --- | --- |
| O=[N+]([O-])c1cc(/C=N/O)ccc1Sc1ccccc1 | > 12 µM | pIC50 (PBLUC_HILL_SLOPE 15.1, PBLUC_R_SQUARED 0.212, read-out: LUCIFERASE INFECTION ASSAY - IC50): < 4.92 |
| C/N=c1\scc(-c2ccccc2Br)n1/N=C/c1ccc[nH]1 | > 10 µM | pIC50 (PBLUC_HILL_SLOPE 15, PBLUC_R_SQUARED 0.188, read-out: LUCIFERASE INFECTION ASSAY - IC50): 5.01 |
| CC(C)Oc1cccc(-c2cn3c(-c4ccc(N(C)C)cc4)cnc3cn2)c1 | > 8.86 µM | pIC50 (PBLUC_HILL_SLOPE 15, PBLUC_R_SQUARED 0.312, read-out: LUCIFERASE INFECTION ASSAY - IC50): < 5.05 |
| Cc1cc(C(=O)Oc2ccccc2C(N)=O)c(C)n1Cc1ccco1 | 1.27 µM | pIC50 (PBLUC_HILL_SLOPE 14.9, PBLUC_R_SQUARED 0.682, read-out: LUCIFERASE INFECTION ASSAY - IC50): 5.96 |
| c1ccc(Oc2ccccc2-c2cnn3c(NCc4ccccn4)ccnc23)cc1 | > 8.39 µM | pIC50 (PBLUC_HILL_SLOPE 14.9, PBLUC_R_SQUARED 0.143, read-out: LUCIFERASE INFECTION ASSAY - IC50): 5.08 |
| O=C(NCc1ccc(-c2cccs2)s1)c1ccc([N+](=O)[O-])s1 | > 9.42 µM | pIC50 (PBLUC_HILL_SLOPE 15, PBLUC_R_SQUARED 0.438, read-out: LUCIFERASE INFECTION ASSAY - IC50): 5.06 |
| O=C(CSc1nnc(C2CC2)o1)NCCC1=CCCCC1 | 3.33 µM | pIC50 (PBLUC_HILL_SLOPE 15.1, PBLUC_R_SQUARED 0.587, read-out: LUCIFERASE INFECTION ASSAY - IC50): 5.54 |
| Cc1ccc2cc(Cn3cc(Br)ccc3=O)c(Cl)nc2c1C | 3.58 µM | pIC50 (PBLUC_HILL_SLOPE 15.2, PBLUC_R_SQUARED 0.445, read-out: LUCIFERASE INFECTION ASSAY - IC50): 5.51 |
| O=C(Nc1ccc(OC(F)(F)F)cc1)Nc1ccccc1SCC(O)Cn1ccc(C(F)(F)F)n1 (stereo not drawn) | > 6.34 µM | pIC50 (PBLUC_HILL_SLOPE 15.1, PBLUC_R_SQUARED 0.225, read-out: LUCIFERASE INFECTION ASSAY - IC50): 5.23 |
| Cc1cc(C2=NN/C(=N\C(C)(C)C)SC2)c(C)n1C(C)C | > 10 µM | pIC50 (PBLUC_HILL_SLOPE 15.1, PBLUC_R_SQUARED 0.242, read-out: LUCIFERASE INFECTION ASSAY - IC50): 5.04 |
| O=C1c2ccccc2O[C@@H](c2ccc([N+](=O)[O-])cc2)[C@@H]1O | > 11.6 µM | pIC50 (PBLUC_HILL_SLOPE 15.1, PBLUC_R_SQUARED 0.277, read-out: LUCIFERASE INFECTION ASSAY - IC50): 4.97 |
| O=C(NNc1ccc(F)cc1)c1cccc(S(=O)(=O)N2CCc3ccccc3C2)c1 | > 10 µM | pIC50 (PBLUC_HILL_SLOPE 14.9, PBLUC_R_SQUARED 0.744, read-out: LUCIFERASE INFECTION ASSAY - IC50): 5.04 |
| COc1ccc(-c2nc(NC(=O)CCc3ccc4c(c3)OCO4)sc2C)cc1 | > 10 µM | pIC50 (PBLUC_HILL_SLOPE 15.2, PBLUC_R_SQUARED 0.468, read-out: LUCIFERASE INFECTION ASSAY - IC50): 5.05 |
| CCN1C(=O)N(Cc2cccc(OC)c2)C(=O)C12CCN(CC(c1ccccc1)c1ccccc1)CC2 | > 6.63 µM | pIC50 (PBLUC_HILL_SLOPE 15.1, PBLUC_R_SQUARED 0.228, read-out: LUCIFERASE INFECTION ASSAY - IC50): 5.21 |
| O=C(NCc1ccccn1)c1nn(CCc2ccccc2)c2c1CN(Cc1ccc(F)cc1)CC2 | > 7.03 µM | pIC50 (PBLUC_HILL_SLOPE 15.1, PBLUC_R_SQUARED 0.777, read-out: LUCIFERASE INFECTION ASSAY - IC50): 5.19 |
| O=C(Nc1nc(-c2ccccn2)cs1)c1ccc(=O)n(Cc2ccccc2)n1 | 9.95 µM | pIC50 (PBLUC_HILL_SLOPE 15.2, PBLUC_R_SQUARED 0.0748, read-out: LUCIFERASE INFECTION ASSAY - IC50): 5.06 |
| COc1ccc(C(=O)C2CCN(C(=O)C3CC(=O)N(c4ccc(C)c(F)c4)C3)CC2)cc1 (stereo not drawn) | > 10 µM | pIC50 (PBLUC_HILL_SLOPE 15.1, PBLUC_R_SQUARED 0.128, read-out: LUCIFERASE INFECTION ASSAY - IC50): 5.00 |

| SMILES | IC90 | other results |
| --- | --- | --- |
| Cc1noc(C)c1-c1nccc2n[nH]c(-c3ccccc3)c12 | > 10 µM | pIC50 (PBLUC_HILL_SLOPE 15.1, PBLUC_R_SQUARED 0.272, read-out: LUCIFERASE INFECTION ASSAY - IC50): 5.03 |
| Cc1ccc(C)c(N2C(=O)C=CC2=O)c1 | > 16.4 µM | pIC50 (PBLUC_HILL_SLOPE 15.1, PBLUC_R_SQUARED 0.421, read-out: LUCIFERASE INFECTION ASSAY - IC50): 4.83 |
| Oc1cccc(-c2cnc3cnc(-c4cccnc4)cn23)c1 | > 11.4 µM | pIC50 (PBLUC_HILL_SLOPE 14.9, PBLUC_R_SQUARED 0.072, read-out: LUCIFERASE INFECTION ASSAY - IC50): 4.97 |
| O=C(c1cccc(F)c1)c1cnc(Nc2cccc(Br)c2)[nH]1 | > 9.16 µM | pIC50 (PBLUC_HILL_SLOPE 15, PBLUC_R_SQUARED 0.325, read-out: LUCIFERASE INFECTION ASSAY - IC50): 5.07 |
| Cc1onc(-c2ccccc2)c1C(=O)ON=C1C2CC3CC(C2)CC1C3 | > 9.42 µM | pIC50 (PBLUC_HILL_SLOPE 14.9, PBLUC_R_SQUARED 0.433, read-out: LUCIFERASE INFECTION ASSAY - IC50): 5.06 |
| CC(OC(=O)c1cc2sc3ccccc3c2s1)C(=O)N1CCNC1=O (stereo not drawn) | 9.91 µM | pIC50 (PBLUC_HILL_SLOPE 15.1, PBLUC_R_SQUARED 0.0385, read-out: LUCIFERASE INFECTION ASSAY - IC50): 5.07 |
| COc1ccc2[nH]cc(C(=O)CN3CCC(Cc4ccccc4)CC3)c2c1 | > 9.1 µM | pIC50 (PBLUC_HILL_SLOPE 15.2, PBLUC_R_SQUARED 0.148, read-out: LUCIFERASE INFECTION ASSAY - IC50): 5.07 |
| O=C(CSCc1nc2ccccc2[nH]1)Nc1nc(-c2ccc(NC(=O)c3ccccc3)cc2)cs1 | > 10 µM | pIC50 (PBLUC_HILL_SLOPE 14.9, PBLUC_R_SQUARED 0.81, read-out: LUCIFERASE INFECTION ASSAY - IC50): 5.03 |
| CC(=O)Nc1cccc(-c2cn3c(-c4ccc(C#N)cc4)cnc3cn2)c1 | > 9.34 µM | pIC50 (PBLUC_HILL_SLOPE 15, PBLUC_R_SQUARED 0.251, read-out: LUCIFERASE INFECTION ASSAY - IC50): 5.09 |
| Cc1cc2ncc(C(=O)Nc3nc4c(s3)CN(Cc3ccccc3)CC4)c(C)n2n1 | > 10 µM | pIC50 (PBLUC_HILL_SLOPE 15, PBLUC_R_SQUARED 0.627, read-out: LUCIFERASE INFECTION ASSAY - IC50): 5.03 |
| CN(C)c1cccc(-c2cnc3sc(NCc4ccccc4)nn23)c1 | 3.57 µM | pIC50 (PBLUC_HILL_SLOPE 15, PBLUC_R_SQUARED 0.389, read-out: LUCIFERASE INFECTION ASSAY - IC50): 5.51 |
| CC(=O)Nc1nc(C(=O)Nc2ccc3c(c2)OC(F)(F)O3)cs1 | > 10 µM | pIC50 (PBLUC_HILL_SLOPE 15.0, 3.17, PBLUC_R_SQUARED 0.232, 0.795, read-out: LUCIFERASE INFECTION ASSAY - IC50): 5.10 |
| CN1CCN(/N=C/c2c(-c3ccccc3)n(-c3ccccc3)c3ccccc23)CC1 | > 10 µM | pIC50 (PBLUC_HILL_SLOPE 15.1, PBLUC_R_SQUARED 0.218, read-out: LUCIFERASE INFECTION ASSAY - IC50): 5.04 |
| CNc1snc(C)c1C(=O)Nc1ccc2oc(C(C)C)nc2c1 | 3.56 µM | pIC50 (PBLUC_HILL_SLOPE 15, PBLUC_R_SQUARED 0.678, read-out: LUCIFERASE INFECTION ASSAY - IC50): 5.51 |
| CSc1ncc(Nc2nc(-c3ccccc3)c(-c3ccccc3)s2)cn1 | 4.18 µM | pIC50 (PBLUC_HILL_SLOPE 14.9, PBLUC_R_SQUARED 0.41, read-out: LUCIFERASE INFECTION ASSAY - IC50): 5.44 |
| CNc1nc2cnc(-c3cccc(OC(F)(F)F)c3)cc2n1-c1cccc(F)c1 | > 10 µM | pIC50 (PBLUC_HILL_SLOPE 15.2, PBLUC_R_SQUARED 0.218, read-out: LUCIFERASE INFECTION ASSAY - IC50): 5.05 |
| CC(C)(C)c1cc2nc(C(F)(F)F)cc(N/N=C/c3ccccc3)n2n1 | > 9.13 µM | pIC50 (PBLUC_HILL_SLOPE 15.2, PBLUC_R_SQUARED 0.244, read-out: LUCIFERASE INFECTION ASSAY - IC50): 5.08 |
